Data reported in article PMC3986099, “Development of a Radioiodinated Triazolopyrimidine Probe for Nuclear Medical Imaging of Fatty Acid Binding Protein 4” (PLoS ONE, 2014).

Experiment: Biodistribution in normal mice
Type: in vivo, ddY mice
Conditions: for Blood / Heart / Intestine / Kidney / Liver / Lung / Muscle / Pancreas / Spleen / Stomach / Thyroid gland: normal mice, i.v.
Procedure: A saline solution (5% ethanol, v/v) of [^125I]TAP1 (0.035 MBq) was injected intravenously into the tail vein of ddY mice (males, 5 weeks old). The mice were sacrificed at various post-injection time points, and the organs of interest were removed. The organ weights were determined, and the radioactivity in the organs was measured with a well-type γ-counter.

stability against deiodination in vivo (low radioactivity in stomach and thyroid gland): stable against deiodination | Blood (5 min): 3.25±0.20 % injected dose per gram | Heart (5 min): 1.59±0.54 % injected dose per gram | Intestine (5 min): 2.21±1.43 % injected dose per gram | Kidney (5 min): 15.30±9.93 % injected dose per gram | Liver (5 min): 57.51±4.79 % injected dose per gram | Lung (5 min): 3.12±1.11 % injected dose per gram | Muscle (5 min): 0.73±0.51 % injected dose per gram | Pancreas (5 min): 1.53±0.84 % injected dose per gram | Spleen (5 min): 1.54±0.60 % injected dose per gram | Stomach (5 min): 0.40±0.14 % injected dose per organ | Thyroid gland (5 min): 0.01±0.005 % injected dose per organ | Blood (15 min): 3.91±0.75 % injected dose per gram | Heart (15 min): 1.57±0.51 % injected dose per gram | Intestine (15 min): 2.21±0.72 % injected dose per gram | Kidney (15 min): 32.89±11.78 % injected dose per gram | Liver (15 min): 47.58±2.57 % injected dose per gram | Lung (15 min): 2.88±0.65 % injected dose per gram | Muscle (15 min): 0.83±0.09 % injected dose per gram | Pancreas (15 min): 1.23±0.26 % injected dose per gram | Spleen (15 min): 1.84±0.43 % injected dose per gram | Stomach (15 min): 0.76±0.14 % injected dose per organ | Thyroid gland (15 min): 0.03±0.01 % injected dose per organ | Blood (30 min): 3.45±0.41 % injected dose per gram | Heart (30 min): 1.39±0.25 % injected dose per gram | Intestine (30 min): 3.83±0.07 % injected dose per gram | Kidney (30 min): 45.34±3.34 % injected dose per gram | Liver (30 min): 50.91±7.27 % injected dose per gram | Lung (30 min): 2.76±0.49 % injected dose per gram | Muscle (30 min): 0.67±0.16 % injected dose per gram | Pancreas (30 min): 0.89±0.12 % injected dose per gram | Spleen (30 min): 1.29±0.13 % injected dose per gram | Stomach (30 min): 0.92±0.21 % injected dose per organ | Thyroid gland (30 min): 0.03±0.01 % injected dose per organ | Blood (60 min): 2.02±0.35 % injected dose per gram | Heart (60 min): 0.96±0.32 % injected dose per gram | Intestine (60 min): 5.10±1.43 % injected dose per gram | Kidney (60 min): 45.89±13.85 % injected dose per gram | Liver (60 min): 46.70±4.43 % injected dose per gram | Lung (60 min): 1.93±0.91 % injected dose per gram | Muscle (60 min): 0.64±0.20 % injected dose per gram | Pancreas (60 min): 1.46±0.55 % injected dose per gram | Spleen (60 min): 1.14±0.38 % injected dose per gram | Stomach (60 min): 1.40±0.69 % injected dose per organ | Thyroid gland (60 min): 0.02±0.08 % injected dose per organ | Blood (120 min): 1.72±0.49 % injected dose per gram | Heart (120 min): 1.11±0.23 % injected dose per gram | Intestine (120 min): 10.58±1.93 % injected dose per gram | Kidney (120 min): 50.84±18.75 % injected dose per gram | Liver (120 min): 31.00±1.52 % injected dose per gram | Lung (120 min): 1.46±0.13 % injected dose per gram | Muscle (120 min): 0.71±0.24 % injected dose per gram | Pancreas (120 min): 0.64±0.1 % injected dose per gram | Spleen (120 min): 1.44±1.21 % injected dose per gram | Stomach (120 min): 2.02±0.70 % injected dose per organ | Thyroid gland (120 min): 0.14±0.21 % injected dose per organ
SMILES: O=c1cc(COc2cccc([125I])c2)[nH]c2nc(-c3ccccc3)nn12 [[^125I]TAP1]
